Measurements: ChEMBL document CHEMBL1909046, “DrugMatrix in vitro pharmacology data”

Assays:
Substance-P receptor = Substance-P receptor (Homo sapiens, UniProt P25103); type: cell membranes, CHO, Membrane; conditions: cho; also: in other assays of this panel Not Active means under 50% inhibition at 10 µM
Interstitial collagenase = biological target: T1, Interstitial collagenase (Homo sapiens, UniProt P03956); assay: biochemical; type: tissue-based, Rheumatoid synovial fibroblasts;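 also: MMP-1 enzyme inhibition assay using a peptide substrate; in other assays of this panel Not Active means under 50% inhibition at 10 µM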
T1 sequence (P03956 whole entry): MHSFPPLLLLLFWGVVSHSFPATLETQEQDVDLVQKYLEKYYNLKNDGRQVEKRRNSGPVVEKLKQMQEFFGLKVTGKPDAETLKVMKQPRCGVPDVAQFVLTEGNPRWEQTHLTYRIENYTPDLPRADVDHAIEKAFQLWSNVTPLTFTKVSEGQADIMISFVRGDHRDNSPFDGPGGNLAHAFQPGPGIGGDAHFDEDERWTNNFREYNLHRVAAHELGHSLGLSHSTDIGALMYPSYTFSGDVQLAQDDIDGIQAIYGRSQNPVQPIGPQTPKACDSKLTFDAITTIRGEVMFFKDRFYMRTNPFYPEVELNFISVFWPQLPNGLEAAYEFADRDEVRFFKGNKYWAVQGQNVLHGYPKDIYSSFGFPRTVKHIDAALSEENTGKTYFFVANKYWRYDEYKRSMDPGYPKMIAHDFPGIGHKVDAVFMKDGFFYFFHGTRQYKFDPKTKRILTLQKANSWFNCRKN

[1] = biological target: T2, C-C chemokine receptor type 4 (Homo sapiens, UniProt P51679); type: cell membranes, Membrane; conditions: chem-1; also: in other assays of this panel Not Active means under 50% inhibition at 10 µM
T2 sequence (P51679 whole entry): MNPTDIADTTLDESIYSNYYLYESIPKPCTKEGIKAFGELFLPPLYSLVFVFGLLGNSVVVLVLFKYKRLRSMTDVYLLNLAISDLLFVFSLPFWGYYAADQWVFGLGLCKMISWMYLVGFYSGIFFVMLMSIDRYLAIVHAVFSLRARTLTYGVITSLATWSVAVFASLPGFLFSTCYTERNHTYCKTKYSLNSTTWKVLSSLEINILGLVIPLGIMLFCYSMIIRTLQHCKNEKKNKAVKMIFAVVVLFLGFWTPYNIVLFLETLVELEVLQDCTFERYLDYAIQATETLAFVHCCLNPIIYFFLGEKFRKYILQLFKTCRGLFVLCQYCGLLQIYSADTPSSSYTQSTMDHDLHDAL

Substance-K receptor = biological target: T3, Substance-K receptor (Homo sapiens, UniProt P21452); type: cell membranes, CHO, Membrane; conditions: cho; also: in other assays of this panel Not Active means under 50% inhibition at 10 µM
T3 sequence (P21452 whole entry): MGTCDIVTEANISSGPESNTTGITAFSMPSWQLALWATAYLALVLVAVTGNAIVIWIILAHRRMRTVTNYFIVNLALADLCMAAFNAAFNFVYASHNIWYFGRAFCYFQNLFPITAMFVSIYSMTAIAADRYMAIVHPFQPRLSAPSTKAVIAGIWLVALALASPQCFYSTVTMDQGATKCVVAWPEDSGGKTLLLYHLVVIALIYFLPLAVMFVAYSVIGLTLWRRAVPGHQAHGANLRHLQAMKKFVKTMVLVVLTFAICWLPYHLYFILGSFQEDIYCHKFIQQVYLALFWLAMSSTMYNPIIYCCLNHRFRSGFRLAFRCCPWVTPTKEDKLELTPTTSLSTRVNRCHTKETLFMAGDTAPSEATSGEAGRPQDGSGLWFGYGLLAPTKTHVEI

Cytochrome P450 3A4 = Cytochrome P450 3A4 (Homo sapiens, UniProt P08684); conditions: bti-tn-5b1-4; also: in other assays of this panel Not Active means under 50% inhibition at 10 µM
[2] = DRUGMATRIX: Sodium/nucleoside co-transporter radioligand binding (ligand: nitrobenzylthioinosine); type: cell membranes, Cavia porcellus, Dunkin-Hartley, Cerebral cortex, Membrane; conditions: Not Active = under 50% inhibition at 10 µM
Thromboxane-A synthase = biological target: T4, Thromboxane-A synthase (Homo sapiens, UniProt P24557); assay: biochemical; type: tissue-based, Platelet; conditions: platelet
T4 sequence (P24557 whole entry): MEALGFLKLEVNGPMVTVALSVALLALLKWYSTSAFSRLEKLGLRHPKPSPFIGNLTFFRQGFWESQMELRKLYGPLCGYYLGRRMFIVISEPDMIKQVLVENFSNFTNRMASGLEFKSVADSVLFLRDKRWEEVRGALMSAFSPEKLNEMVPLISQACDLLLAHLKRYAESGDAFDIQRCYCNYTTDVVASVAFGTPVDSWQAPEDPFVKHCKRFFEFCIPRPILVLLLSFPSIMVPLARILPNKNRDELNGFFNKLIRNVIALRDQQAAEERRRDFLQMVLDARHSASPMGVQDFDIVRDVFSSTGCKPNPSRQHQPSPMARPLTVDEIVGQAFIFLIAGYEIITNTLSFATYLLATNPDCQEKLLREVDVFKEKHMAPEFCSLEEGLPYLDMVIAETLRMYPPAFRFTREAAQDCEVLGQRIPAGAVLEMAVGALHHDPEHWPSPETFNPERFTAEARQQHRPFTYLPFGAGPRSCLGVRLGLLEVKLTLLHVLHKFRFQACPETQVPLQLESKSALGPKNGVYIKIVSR

Cytochrome P450 2C19 = Cytochrome P450 2C19 (Homo sapiens, UniProt P33261); conditions: bti-tn-5b1-4; also: in other assays of this panel Not Active means under 50% inhibition at 10 µM
Sequence of Cytochrome P450 2C19 (P33261 whole entry): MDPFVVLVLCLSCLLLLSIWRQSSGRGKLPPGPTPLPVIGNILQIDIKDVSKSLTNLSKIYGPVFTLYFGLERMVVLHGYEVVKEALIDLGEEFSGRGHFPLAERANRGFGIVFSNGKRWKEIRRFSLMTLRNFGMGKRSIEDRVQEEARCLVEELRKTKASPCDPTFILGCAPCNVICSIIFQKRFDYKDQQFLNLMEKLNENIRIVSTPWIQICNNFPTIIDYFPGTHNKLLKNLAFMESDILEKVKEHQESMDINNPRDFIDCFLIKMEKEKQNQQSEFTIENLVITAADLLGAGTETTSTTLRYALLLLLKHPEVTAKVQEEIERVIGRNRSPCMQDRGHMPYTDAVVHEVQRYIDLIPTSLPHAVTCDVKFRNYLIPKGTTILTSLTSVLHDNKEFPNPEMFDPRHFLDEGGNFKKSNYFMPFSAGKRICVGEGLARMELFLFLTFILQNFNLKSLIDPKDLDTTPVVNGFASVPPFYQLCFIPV

Sequence of Cytochrome P450 3A4 (P08684 whole entry): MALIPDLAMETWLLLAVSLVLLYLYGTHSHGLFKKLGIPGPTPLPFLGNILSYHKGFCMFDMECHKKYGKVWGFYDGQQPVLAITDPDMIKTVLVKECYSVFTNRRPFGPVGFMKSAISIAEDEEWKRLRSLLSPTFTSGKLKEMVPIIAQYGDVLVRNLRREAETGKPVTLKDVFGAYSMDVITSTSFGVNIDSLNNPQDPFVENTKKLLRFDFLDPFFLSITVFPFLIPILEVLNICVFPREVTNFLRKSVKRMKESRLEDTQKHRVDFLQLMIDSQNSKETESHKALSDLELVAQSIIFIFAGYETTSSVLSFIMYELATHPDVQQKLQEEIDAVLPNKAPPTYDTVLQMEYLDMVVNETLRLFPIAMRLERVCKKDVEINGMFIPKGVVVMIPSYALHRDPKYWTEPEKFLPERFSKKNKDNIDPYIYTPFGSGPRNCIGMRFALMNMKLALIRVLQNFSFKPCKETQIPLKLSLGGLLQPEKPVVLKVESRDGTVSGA
Sequence of Substance-P receptor (P25103 whole entry): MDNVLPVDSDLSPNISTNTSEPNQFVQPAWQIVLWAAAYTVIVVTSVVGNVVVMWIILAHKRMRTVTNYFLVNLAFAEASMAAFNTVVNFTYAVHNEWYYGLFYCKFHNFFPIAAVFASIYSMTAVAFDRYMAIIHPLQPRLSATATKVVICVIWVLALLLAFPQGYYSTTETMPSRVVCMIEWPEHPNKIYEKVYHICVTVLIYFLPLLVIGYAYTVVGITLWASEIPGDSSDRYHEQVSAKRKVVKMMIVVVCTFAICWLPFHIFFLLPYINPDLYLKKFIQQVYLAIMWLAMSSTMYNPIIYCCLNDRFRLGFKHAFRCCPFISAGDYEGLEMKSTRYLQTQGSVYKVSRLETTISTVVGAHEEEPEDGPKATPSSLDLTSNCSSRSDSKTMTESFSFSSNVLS

CN1CCCC(CN2c3ccccc3Sc3ccccc32)C1 (stereo not given) [MEPAZINE]
Not Active: IC50 (Substance-P receptor) | IC50 (Interstitial collagenase) | IC50 [1] | IC50 (Substance-K receptor) | IC50 (Cytochrome P450 3A4) | Ki (Cytochrome P450 3A4) | IC50 [2] | Ki [2] | IC50 (Thromboxane-A synthase) | IC50 (Cytochrome P450 2C19) | Ki (Cytochrome P450 2C19)

NCCCNCCSP(=O)(O)O [AMIFOSTINE]
Not Active: IC50 (Substance-P receptor) | IC50 (Interstitial collagenase) | IC50 [1] | IC50 (Substance-K receptor) | IC50 (Cytochrome P450 3A4) | Ki (Cytochrome P450 3A4) | IC50 [2] | Ki [2] | IC50 (Thromboxane-A synthase) | IC50 (Cytochrome P450 2C19) | Ki (Cytochrome P450 2C19)

CC[C@]1(O)C[C@@H]2CN(CCc3c([nH]c4ccccc34)[C@@](C(=O)OC)(c3cc4c(cc3OC)N(C)[C@H]3[C@@](O)(C(N)=O)[C@H](O)[C@]5(CC)C=CCN6CC[C@]43[C@@H]65)C2)C1 [VINDESINE]
Not Active: IC50 (Substance-P receptor) | IC50 (Interstitial collagenase) | IC50 [1] | IC50 (Substance-K receptor) | IC50 (Cytochrome P450 3A4) | Ki (Cytochrome P450 3A4) | IC50 [2] | Ki [2] | IC50 (Thromboxane-A synthase) | IC50 (Cytochrome P450 2C19) | Ki (Cytochrome P450 2C19)

CCn1cc(C(=O)O)c(=O)c2cc(F)c(N3CCNC(C)C3)c(F)c21 (stereo not given) [LOMEFLOXACIN]
Not Active: IC50 (Substance-P receptor) | IC50 (Interstitial collagenase) | IC50 [1] | IC50 (Substance-K receptor) | IC50 (Cytochrome P450 3A4) | Ki (Cytochrome P450 3A4) | IC50 [2] | Ki [2] | IC50 (Thromboxane-A synthase) | IC50 (Cytochrome P450 2C19) | Ki (Cytochrome P450 2C19)

CN1CCN(c2c(F)cc3c(=O)c(C(=O)O)cn(CCF)c3c2F)CC1 [FLEROXACIN]
Not Active: IC50 (Substance-P receptor) | IC50 (Interstitial collagenase) | IC50 [1] | IC50 (Substance-K receptor) | IC50 (Cytochrome P450 3A4) | Ki (Cytochrome P450 3A4) | IC50 [2] | Ki [2] | IC50 (Thromboxane-A synthase) | IC50 (Cytochrome P450 2C19) | Ki (Cytochrome P450 2C19)

NC(=O)c1cccc(N)c1 [3-AMINOBENZAMIDE]
Not Active: IC50 (Substance-P receptor) | IC50 (Interstitial collagenase) | IC50 [1] | IC50 (Substance-K receptor) | IC50 (Cytochrome P450 3A4) | Ki (Cytochrome P450 3A4) | IC50 [2] | Ki [2] | IC50 (Thromboxane-A synthase) | IC50 (Cytochrome P450 2C19) | Ki (Cytochrome P450 2C19)

CC(=O)OC[C@H]1O[C@@H](n2ncc(=O)[nH]c2=O)[C@H](OC(C)=O)[C@@H]1OC(C)=O [AZARIBINE]
Not Active: IC50 (Substance-P receptor) | IC50 (Interstitial collagenase) | IC50 [1] | IC50 (Substance-K receptor) | IC50 (Cytochrome P450 3A4) | Ki (Cytochrome P450 3A4) | IC50 [2] | Ki [2] | IC50 (Thromboxane-A synthase) | IC50 (Cytochrome P450 2C19) | Ki (Cytochrome P450 2C19)

NC(=O)N1c2ccccc2CC(=O)c2ccccc21 [OXCARBAZEPINE]
Not Active: IC50 (Substance-P receptor) | IC50 (Interstitial collagenase) | IC50 [1] | IC50 (Substance-K receptor) | IC50 (Cytochrome P450 3A4) | Ki (Cytochrome P450 3A4) | IC50 [2] | Ki [2] | IC50 (Thromboxane-A synthase) | IC50 (Cytochrome P450 2C19) | Ki (Cytochrome P450 2C19)

C#C[C@]1(O)CC[C@H]2[C@@H]3CCC4=CC(=O)CC[C@]4(C)[C@H]3CC[C@@]21C [ETHISTERONE]
Not Active: IC50 (Substance-P receptor) | IC50 (Interstitial collagenase) | IC50 [1] | IC50 (Substance-K receptor) | IC50 (Cytochrome P450 3A4) | Ki (Cytochrome P450 3A4) | IC50 [2] | Ki [2] | IC50 (Thromboxane-A synthase) | IC50 (Cytochrome P450 2C19) | Ki (Cytochrome P450 2C19)

CCC1=C(C)CN(C(=O)NCCc2ccc(S(=O)(=O)NC(=O)N[C@H]3CC[C@H](C)CC3)cc2)C1=O [GLIMEPIRIDE]
Not Active: IC50 (Substance-P receptor) | IC50 (Interstitial collagenase) | IC50 [1] | IC50 (Substance-K receptor) | IC50 (Cytochrome P450 3A4) | Ki (Cytochrome P450 3A4) | IC50 [2] | Ki [2] | IC50 (Thromboxane-A synthase) | IC50 (Cytochrome P450 2C19) | Ki (Cytochrome P450 2C19)
